Active and inactive are the calls of the source.
Key:
Assay type in all cases: functional
[1] = molecular target: Tyrosine-protein kinase JAK2 (Homo sapiens, UniProt O60674);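 also: JAK2 tested as one member of a kinase panel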
[2] = molecular target: Ribosomal protein S6 kinase beta-1 (Homo sapiens, UniProt P23443);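 also: measured as one member of a kinome-wide profiling panel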
[3] = molecular target: Serine/threonine-protein kinase Chk2 (Homo sapiens, UniProt O96017);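 also: CHEK2 entry within a kinome-wide screening panel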
[4] = molecular target: Cyclin-dependent kinase 2 (Homo sapiens, UniProt P24941);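 also: CDK2 measured as one member of a broad kinome profiling panel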
[5] = molecular target: MAP kinase-activated protein kinase 2 (Homo sapiens, UniProt P49137);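 also: measured as one member of a kinome-wide kinase panel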
Sequence of MAP kinase-activated protein kinase 2 (P49137 whole entry): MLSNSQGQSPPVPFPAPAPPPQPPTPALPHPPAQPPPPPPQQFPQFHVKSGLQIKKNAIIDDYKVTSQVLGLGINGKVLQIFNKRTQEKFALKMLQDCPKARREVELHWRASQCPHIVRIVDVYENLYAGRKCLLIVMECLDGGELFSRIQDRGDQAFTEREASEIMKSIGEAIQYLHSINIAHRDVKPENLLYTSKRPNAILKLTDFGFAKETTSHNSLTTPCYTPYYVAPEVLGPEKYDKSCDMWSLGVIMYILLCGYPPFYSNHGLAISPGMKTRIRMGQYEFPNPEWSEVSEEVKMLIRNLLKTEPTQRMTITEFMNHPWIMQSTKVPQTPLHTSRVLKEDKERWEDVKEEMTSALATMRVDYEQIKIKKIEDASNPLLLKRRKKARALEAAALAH

[6] = molecular target: Casein kinase II subunit alpha (Homo sapiens, UniProt P68400)
[7] = molecular target: Fibroblast growth factor receptor 1 (Homo sapiens, UniProt P11362)
[8] = molecular target: T1, Tyrosine-protein kinase JAK3 (Homo sapiens, UniProt P52333)
T1 sequence (P52333 whole entry): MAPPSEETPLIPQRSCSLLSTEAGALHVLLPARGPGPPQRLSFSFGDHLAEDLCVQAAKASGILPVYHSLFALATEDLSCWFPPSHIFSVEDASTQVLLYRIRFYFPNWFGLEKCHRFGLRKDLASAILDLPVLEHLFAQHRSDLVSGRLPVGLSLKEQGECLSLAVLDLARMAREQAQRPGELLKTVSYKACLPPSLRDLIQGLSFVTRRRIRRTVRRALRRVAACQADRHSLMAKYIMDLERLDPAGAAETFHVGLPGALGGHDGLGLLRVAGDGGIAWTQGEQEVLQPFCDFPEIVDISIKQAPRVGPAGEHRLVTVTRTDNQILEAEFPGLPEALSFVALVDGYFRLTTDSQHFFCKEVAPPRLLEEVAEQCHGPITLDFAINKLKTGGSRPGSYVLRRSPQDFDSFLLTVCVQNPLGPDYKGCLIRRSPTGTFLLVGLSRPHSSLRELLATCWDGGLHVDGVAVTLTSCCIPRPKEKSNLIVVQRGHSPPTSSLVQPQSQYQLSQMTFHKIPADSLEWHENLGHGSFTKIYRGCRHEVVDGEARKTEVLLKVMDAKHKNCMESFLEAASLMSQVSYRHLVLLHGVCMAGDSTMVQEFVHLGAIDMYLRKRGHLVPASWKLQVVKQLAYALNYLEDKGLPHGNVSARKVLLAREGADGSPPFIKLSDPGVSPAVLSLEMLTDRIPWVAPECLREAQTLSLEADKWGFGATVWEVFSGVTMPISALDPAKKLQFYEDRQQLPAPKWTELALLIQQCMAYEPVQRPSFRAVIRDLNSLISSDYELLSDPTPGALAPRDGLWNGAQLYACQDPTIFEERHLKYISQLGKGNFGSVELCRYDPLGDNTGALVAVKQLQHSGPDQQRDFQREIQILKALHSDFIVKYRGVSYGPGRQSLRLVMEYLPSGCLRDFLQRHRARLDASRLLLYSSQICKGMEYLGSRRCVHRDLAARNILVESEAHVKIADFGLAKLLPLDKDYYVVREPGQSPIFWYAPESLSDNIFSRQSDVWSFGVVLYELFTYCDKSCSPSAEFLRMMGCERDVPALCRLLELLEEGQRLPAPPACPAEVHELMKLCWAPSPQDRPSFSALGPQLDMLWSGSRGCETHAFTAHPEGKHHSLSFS

[9] = molecular target: Mitogen-activated protein kinase 9 (Homo sapiens, UniProt P45984);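 also: value from a kinome panel profiling assay, MAPK9 panel entry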
[10] = molecular target: T2, Tyrosine-protein kinase ITK/TSK (Homo sapiens, UniProt Q08881);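 also: affinity for ITK measured as one member of a broad kinase panel profiling binding across the kinome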
T2 sequence (Q08881 whole entry): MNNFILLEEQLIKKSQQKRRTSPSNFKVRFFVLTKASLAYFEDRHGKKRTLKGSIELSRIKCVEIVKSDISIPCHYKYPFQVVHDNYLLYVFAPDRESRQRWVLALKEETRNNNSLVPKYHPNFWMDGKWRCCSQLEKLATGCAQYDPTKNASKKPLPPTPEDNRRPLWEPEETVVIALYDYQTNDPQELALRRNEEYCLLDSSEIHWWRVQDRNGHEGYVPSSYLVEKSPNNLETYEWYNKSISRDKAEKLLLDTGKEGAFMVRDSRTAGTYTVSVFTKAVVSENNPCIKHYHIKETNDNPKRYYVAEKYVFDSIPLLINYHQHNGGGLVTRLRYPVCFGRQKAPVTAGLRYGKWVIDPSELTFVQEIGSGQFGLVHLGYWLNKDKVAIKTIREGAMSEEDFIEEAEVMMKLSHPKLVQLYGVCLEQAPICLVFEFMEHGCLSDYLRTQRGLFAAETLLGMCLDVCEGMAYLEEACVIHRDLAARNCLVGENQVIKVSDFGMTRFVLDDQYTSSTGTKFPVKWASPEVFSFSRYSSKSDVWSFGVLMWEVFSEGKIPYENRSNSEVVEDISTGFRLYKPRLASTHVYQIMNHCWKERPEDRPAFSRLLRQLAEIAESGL

[11] = molecular target: High affinity nerve growth factor receptor (Homo sapiens, UniProt P04629);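 also: NTRK1 tested as one member of a kinome-wide profiling panel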
Sequence of High affinity nerve growth factor receptor (P04629 whole entry): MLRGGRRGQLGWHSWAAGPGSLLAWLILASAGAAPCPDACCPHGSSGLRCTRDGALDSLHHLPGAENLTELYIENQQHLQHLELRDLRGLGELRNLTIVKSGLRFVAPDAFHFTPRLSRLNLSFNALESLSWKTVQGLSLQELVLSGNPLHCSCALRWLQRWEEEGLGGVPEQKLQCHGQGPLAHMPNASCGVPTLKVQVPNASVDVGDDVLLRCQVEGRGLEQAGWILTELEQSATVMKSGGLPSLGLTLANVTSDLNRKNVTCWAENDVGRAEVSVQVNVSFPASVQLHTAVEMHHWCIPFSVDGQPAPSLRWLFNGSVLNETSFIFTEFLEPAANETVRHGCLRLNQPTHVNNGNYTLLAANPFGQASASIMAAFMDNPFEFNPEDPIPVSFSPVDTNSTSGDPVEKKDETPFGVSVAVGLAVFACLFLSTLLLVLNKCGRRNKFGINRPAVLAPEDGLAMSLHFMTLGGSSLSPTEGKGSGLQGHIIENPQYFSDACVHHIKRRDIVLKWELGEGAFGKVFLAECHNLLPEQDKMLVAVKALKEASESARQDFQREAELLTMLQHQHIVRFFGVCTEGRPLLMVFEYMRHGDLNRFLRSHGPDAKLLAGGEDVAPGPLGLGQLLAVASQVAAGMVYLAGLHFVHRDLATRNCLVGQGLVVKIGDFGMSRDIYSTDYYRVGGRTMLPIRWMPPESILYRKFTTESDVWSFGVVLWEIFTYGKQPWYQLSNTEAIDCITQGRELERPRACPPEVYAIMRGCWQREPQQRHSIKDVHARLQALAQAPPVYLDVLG

[12] = molecular target: Receptor-type tyrosine-protein kinase FLT3 (Homo sapiens, UniProt P36888);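 also: FLT3 was tested as one member of a kinome-wide kinase panel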
[13] = molecular target: MAP kinase-activated protein kinase 3 (Homo sapiens, UniProt Q16644);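 also: value comes from a kinome-wide profiling panel in which MAPKAPK3 is one of the panel members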
[14] = molecular target: Serine/threonine-protein kinase Chk1 (Homo sapiens, UniProt O14757);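 also: measured as one member of a kinome-wide kinase profiling panel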
[15] = molecular target: Casein kinase I isoform delta (Homo sapiens, UniProt P48730);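 also: measured as one member (CSNK1D) of a kinome panel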
Sequence of Casein kinase I isoform delta (P48730 whole entry, canonical isoform): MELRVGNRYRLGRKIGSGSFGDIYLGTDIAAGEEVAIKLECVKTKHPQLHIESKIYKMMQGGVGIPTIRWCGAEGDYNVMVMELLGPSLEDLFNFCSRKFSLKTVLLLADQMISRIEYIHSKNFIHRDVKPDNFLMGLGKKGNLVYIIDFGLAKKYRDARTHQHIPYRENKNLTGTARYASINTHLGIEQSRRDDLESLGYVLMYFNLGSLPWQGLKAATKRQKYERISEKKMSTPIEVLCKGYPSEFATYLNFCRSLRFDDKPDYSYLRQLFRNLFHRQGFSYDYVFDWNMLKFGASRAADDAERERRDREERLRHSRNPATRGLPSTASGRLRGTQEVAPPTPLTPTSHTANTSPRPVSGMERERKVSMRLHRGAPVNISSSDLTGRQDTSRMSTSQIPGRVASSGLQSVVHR

[16] = molecular target: Vascular endothelial growth factor receptor 2 (Homo sapiens, UniProt P35968)
Sequence of Vascular endothelial growth factor receptor 2 (P35968 whole entry): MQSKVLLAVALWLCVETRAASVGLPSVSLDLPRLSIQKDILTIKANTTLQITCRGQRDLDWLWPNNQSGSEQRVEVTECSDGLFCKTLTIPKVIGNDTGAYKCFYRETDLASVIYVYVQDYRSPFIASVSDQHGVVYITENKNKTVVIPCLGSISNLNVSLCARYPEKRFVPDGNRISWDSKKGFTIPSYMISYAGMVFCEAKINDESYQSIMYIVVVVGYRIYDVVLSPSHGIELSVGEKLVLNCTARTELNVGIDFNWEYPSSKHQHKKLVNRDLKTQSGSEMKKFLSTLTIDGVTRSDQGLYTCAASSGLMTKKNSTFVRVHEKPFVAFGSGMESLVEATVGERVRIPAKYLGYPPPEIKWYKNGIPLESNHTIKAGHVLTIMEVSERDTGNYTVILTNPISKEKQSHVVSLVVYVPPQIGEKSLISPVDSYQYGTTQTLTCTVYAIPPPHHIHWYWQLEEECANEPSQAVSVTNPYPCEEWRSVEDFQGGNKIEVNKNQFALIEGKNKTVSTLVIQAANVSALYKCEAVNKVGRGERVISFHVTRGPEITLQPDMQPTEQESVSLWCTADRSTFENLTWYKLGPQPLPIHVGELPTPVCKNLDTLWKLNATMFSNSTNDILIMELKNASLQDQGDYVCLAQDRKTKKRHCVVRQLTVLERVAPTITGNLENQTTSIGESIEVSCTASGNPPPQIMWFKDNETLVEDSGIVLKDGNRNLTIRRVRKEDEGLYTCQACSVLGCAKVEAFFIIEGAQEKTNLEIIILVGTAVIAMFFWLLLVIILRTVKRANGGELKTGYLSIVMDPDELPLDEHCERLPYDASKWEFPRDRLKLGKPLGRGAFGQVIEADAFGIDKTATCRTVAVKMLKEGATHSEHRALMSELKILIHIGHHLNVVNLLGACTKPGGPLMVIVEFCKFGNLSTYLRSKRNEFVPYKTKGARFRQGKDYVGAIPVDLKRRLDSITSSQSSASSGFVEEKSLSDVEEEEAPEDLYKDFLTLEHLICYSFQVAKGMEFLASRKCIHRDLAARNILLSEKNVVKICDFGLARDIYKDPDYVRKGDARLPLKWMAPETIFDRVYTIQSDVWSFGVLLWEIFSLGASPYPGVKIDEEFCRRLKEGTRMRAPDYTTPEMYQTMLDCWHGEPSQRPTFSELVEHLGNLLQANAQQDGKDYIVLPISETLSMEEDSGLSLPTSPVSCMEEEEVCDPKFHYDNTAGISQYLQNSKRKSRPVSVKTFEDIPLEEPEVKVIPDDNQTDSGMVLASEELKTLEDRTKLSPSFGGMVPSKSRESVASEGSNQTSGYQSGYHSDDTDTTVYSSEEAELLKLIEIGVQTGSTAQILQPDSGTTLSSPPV

[17] = molecular target: Tyrosine-protein kinase Fyn (Homo sapiens, UniProt P06241)
[18] = molecular target: Serine/threonine-protein kinase pim-2 (Homo sapiens, UniProt Q9P1W9);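 also: value comes from a broad kinase panel profiling study in which PIM2 was one of the panel members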
Sequence of Serine/threonine-protein kinase pim-2 (Q9P1W9 whole entry): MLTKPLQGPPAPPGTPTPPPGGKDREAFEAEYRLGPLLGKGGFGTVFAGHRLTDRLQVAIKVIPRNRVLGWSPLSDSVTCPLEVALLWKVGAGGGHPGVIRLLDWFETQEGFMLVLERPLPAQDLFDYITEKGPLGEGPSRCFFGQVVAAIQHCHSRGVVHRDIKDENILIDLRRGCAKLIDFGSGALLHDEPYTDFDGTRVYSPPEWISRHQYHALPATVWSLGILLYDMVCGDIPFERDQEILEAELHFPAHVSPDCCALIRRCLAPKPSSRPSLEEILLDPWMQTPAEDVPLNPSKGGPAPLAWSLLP

[19] = molecular target: Serine/threonine-protein kinase Nek2 (Homo sapiens, UniProt P51955)
[20] = molecular target: Mitogen-activated protein kinase 12 (Homo sapiens, UniProt P53778);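 also: measured as one member of a kinome-wide kinase profiling panel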
[21] = molecular target: Macrophage colony-stimulating factor 1 receptor (Homo sapiens, UniProt P07333);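 also: value comes from the Navigating the Kinome screening panel, CSF1R member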
Sequence of Macrophage colony-stimulating factor 1 receptor (P07333 whole entry): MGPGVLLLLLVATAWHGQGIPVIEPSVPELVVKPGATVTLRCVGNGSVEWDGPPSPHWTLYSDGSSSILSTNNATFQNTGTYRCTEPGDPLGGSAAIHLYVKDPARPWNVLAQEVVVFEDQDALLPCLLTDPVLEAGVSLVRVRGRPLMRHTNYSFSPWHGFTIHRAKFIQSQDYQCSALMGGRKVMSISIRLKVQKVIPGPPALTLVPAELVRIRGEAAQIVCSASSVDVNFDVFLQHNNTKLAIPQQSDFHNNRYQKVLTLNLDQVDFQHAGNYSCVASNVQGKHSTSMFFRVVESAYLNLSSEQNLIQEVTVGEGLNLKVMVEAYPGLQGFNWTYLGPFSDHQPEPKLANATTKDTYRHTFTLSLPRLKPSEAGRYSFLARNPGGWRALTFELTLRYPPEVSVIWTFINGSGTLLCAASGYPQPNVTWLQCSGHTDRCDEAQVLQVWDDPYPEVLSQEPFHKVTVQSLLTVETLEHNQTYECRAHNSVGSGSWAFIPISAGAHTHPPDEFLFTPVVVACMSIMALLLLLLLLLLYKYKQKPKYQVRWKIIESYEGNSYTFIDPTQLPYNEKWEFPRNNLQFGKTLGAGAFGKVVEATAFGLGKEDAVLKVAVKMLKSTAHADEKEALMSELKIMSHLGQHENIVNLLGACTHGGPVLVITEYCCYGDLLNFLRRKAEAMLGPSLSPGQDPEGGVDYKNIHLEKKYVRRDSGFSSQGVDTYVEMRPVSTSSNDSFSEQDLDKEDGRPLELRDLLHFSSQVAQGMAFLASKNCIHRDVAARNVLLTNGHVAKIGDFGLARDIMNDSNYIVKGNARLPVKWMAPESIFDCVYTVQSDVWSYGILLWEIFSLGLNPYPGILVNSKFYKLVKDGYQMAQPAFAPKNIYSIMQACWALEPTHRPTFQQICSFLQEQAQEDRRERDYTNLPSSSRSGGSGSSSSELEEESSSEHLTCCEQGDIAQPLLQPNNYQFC

[22] = molecular target: Testis-specific serine/threonine-protein kinase 2 (Homo sapiens, UniProt Q96PF2);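 also: part of the Navigating the Kinome panel, target entry STK22B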
Focal adhesion kinase 1 = Focal adhesion kinase 1 (Homo sapiens, UniProt Q05397);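 also: measured as one member of a kinome panel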

Sequence of Ribosomal protein S6 kinase beta-1 (P23443 whole entry): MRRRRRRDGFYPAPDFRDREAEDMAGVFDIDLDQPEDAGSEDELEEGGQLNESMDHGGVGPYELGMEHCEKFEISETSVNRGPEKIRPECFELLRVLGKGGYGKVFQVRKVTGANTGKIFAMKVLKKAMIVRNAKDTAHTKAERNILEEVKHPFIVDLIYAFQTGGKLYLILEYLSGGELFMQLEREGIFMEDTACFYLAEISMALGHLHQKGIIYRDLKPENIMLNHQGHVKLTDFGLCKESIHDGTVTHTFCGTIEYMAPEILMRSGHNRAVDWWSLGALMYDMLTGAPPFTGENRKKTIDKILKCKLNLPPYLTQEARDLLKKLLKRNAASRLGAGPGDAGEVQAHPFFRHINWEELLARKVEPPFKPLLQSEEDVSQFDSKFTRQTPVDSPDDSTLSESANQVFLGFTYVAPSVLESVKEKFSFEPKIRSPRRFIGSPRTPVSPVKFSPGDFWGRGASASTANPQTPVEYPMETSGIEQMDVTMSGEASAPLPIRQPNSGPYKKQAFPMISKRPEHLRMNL

| Compound | Ki [1] | Ki [2] | Ki [3] | Ki [4] | Ki [5] | Ki [6] | Ki [7] | Ki [8] | Ki [9] | Ki [10] | Ki [11] | Ki [12] | Ki [13] | Ki [14] | Ki [15] | Ki [16] | Ki [17] | Ki [18] | Ki [19] | Ki [20] | also measured |
| --- | --- | --- | --- | --- | --- | --- | --- | --- | --- | --- | --- | --- | --- | --- | --- | --- | --- | --- | --- | --- | --- |
| Cc1c(C=O)c(O)n2c(nc3ccccc32)c1C#N | > 1580 nM (inactive) | 1260 nM (active) | > 10000 nM (inactive) | > 7940 nM (inactive) | > 7940 nM (inactive) | 63.1 nM (active) | > 5010 nM (inactive) | 100 nM (active) | > 3980 nM (inactive) | 398 nM (active) | > 2510 nM (inactive) | 631 nM (active) | > 10000 nM (inactive) | > 7940 nM (inactive) | 2000 nM (active) | > 7940 nM (inactive) | 398 nM (active) | > 1580 nM (inactive) | > 10000 nM (inactive) | > 6310 nM (inactive) | Ki [21]: > 2510 nM (inactive) |
| Cc1n[nH]c2cnc(-c3cncc(OCC(N)Cc4cccc(C(F)(F)F)c4)c3)cc12 (centres undefined) | > 1580 nM (inactive) | 12.6 nM (active) | 79.4 nM (active) | 10 nM (active) | 1580 nM (active) | 794 nM (active) | > 5010 nM (inactive) | 1260 nM (active) | > 3980 nM (inactive) | > 1580 nM (inactive) | > 2510 nM (inactive) | 1580 nM (active) | > 10000 nM (inactive) | 3980 nM (active) | 316 nM (active) | > 7940 nM (inactive) | > 794 nM (inactive) | 1.26 nM (active) | > 10000 nM (inactive) | 1000 nM (active) | Ki [22]: 79.4 nM (active); Ki (Focal adhesion kinase 1): > 1580 nM (inactive); Ki [21]: > 2510 nM (inactive) |

Reference: ChEMBL document CHEMBL1201862, “PubChem BioAssay data set” (2004)
